Assay results as given in PMC11234452, “HydrogelFinder: A Foundation Model for Efficient Self‐Assembling Peptide Discovery Guided by Non‐Peptidal Small Molecules” (Advanced Science, 2024).
Residues, ends and D or L forms follow the SMILES beside them.

Legend:
Format in all cases: physicochemical
[1] = TEM of hydrogel matrix, nanofiber width; settings: uranyl formate stain, ImageJ, 30 measurements per picture
Description: These nanofibers were entangled with one another, forming a 3D‐network that comprised the hydrogel matrix (Figure 4B).
The sample was prepared by placing a drop of peptide solution on a 200‐mesh copper grid (Electron Microscopy China) and allowed to stand for 1.0 min, then blotted with filter paper. Subsequently a drop of 1.0% Uranyl Formate was placed on the grid and allowed to stand for 1–2 min, then blotted with a piece of filter paper and left to air dry. Images were taken with a JEOL JEM‐2100Plus at 80 kV accelerating voltage. By calculating the width of peptide, The image J was used to measure 30 times for 1 TEM picture, and to gather statistics with frequency.^[ [26] ^]

[2] = Hydrogelation test, inverted tube method; settings: for pH (of hydrogelation) / Conc. (hydrogelation concentration): 37 °C overnight; for Conc. (hydrogelation concentration): pH adjusted with NaOH or HCl
Description: We subsequently evaluated their gelation capability (Figure S2, Supporting Information). After purification by HPLC, the obtained compounds were dissolved in water and the pH of the solution was adjusted to trigger self‐assembly and hydrogelation.
Observing gel behavior in an inverted test tube is a rapid and facile approach to determine whether a dissolved peptide formed a gel.
All compounds were placed in a glass tube (diameter 10 mm) and first dissolved in D.I water, sonicated for 5 min and putted on ice for 30 min. Then added 2x PBS buffer (5.4 mM KCl, 20 mM Na2HPO4, 4 mM KH2PO4) or D.I water to reach the final concentration of 1.0 wt%. pH was adjusted with NaOH or HCl. The solutions were stored in 37 °C incubator overnight. Gelation was confirmed by the inverting method.

[3] = Oscillatory rheology, dynamic time sweep; settings: 37 °C, 15 mm parallel geometry, gap 0.5 mm, G′ consistently higher than G″
Description: To further explore the gelation properties and self‐assembly behavior of the candidate self‐assembling molecules, we carried out a series of biophysical characterization experiments.
All rheological experiments were performed on an Anton Parr equipped with a steel 15 mm parallel geometry tool. […] To avoid dehydration, a layer of silicon oil was applied around the edge of the sample at the start of the measurement. Dynamic strain sweep experiments were performed to ensure that the time‐sweep data was collected in the linear regime of strain. The dynamic strain sweep was performed varying the strain from 0.1 to 100% at a constant frequency (6 rad s^−1).

pH (of hydrogelation) ([2]; buffer 1X PBS) | Conc. (hydrogelation concentration) ([2]; buffer 1X PBS) | gelation outcome / gel appearance ([2]; in water, pH adjusted (2–12)) | Molecule | nanofiber width [1] | storage modulus (G′) at equilibrium [3] | pH (of hydrogelation) ([2]; in water) | Conc. (hydrogelation concentration) ([2]; in water)
5.0 | 1.0 wt% |  | NC(=O)[C@H](Cc1ccccc1)NC(=O)[C@H](CC(=O)O)NC(=O)CNC(=O)[C@H](CCC(=O)O)NC(=O)[C@H](Cc1ccccc1)NC(=O)[C@H](CCC(=O)O)NC(=O)[C@@H](N)Cc1c[nH]c2ccccc12 [compound 16] (H-WEFEGDF-NH2; N-terminus assumed) | 9–10 nm | 1254 Pa |  | 
3.0 | 1.0 wt% | opaque hydrogel | EYVRFF [compound 368, self-assembling peptide EYVRFF] |  |  |  | 
 |  |  | FFFVF‐NH2 [compound 322, self-assembling peptide FFFVF‐NH2] | approximately 14 nm | 21,393 Pa | 7.0 | 1.0 wt%
 |  |  | FYGVF‐NH2 [compound 166, self-assembling peptide FYGVF‐NH2] | ~25 nm |  | 7.0 | 0.5 wt%

Molecule | pH (of hydrogelation) ([2]; buffer 1X PBS) | Conc. (hydrogelation concentration) ([2]; buffer 1X PBS) | gelation outcome / gel appearance ([2]; in water, pH adjusted (2–12)) | nanofiber width [1] | storage modulus (G′) at equilibrium [3] | pH (of hydrogelation) ([2]; in water) | Conc. (hydrogelation concentration) ([2]; in water)
VKVKAFIDDK [compound 560, self-assembling peptide […]] | 8.0 | 1.0 wt% |  |  |  |  | 
